Assay results reported in patent publication US9150788B2, “Non-amphiphile-based water-in-water emulsion and uses thereof” (Syracuse University, priority 2007, dated 2015).

Assays:
E. coli biofilm = E. coli biofilm formation on stainless steel surface; format: cell-based; conditions: 60 μg/mL, non-toxic concentration
AI-2 synthesis [1] = experiment: AI-2 synthesis in E. coli, bioluminescence assay with reporter strain Vibrio harveyi BB 170; format: cell-based; conditions: 60 μg/mL
Procedure: Biofilm formation relies on bacteria's secretion and sensing (quorum sensing) of signal molecules (called auto-inducer). […] Furanone #8 and 9 (60 μg/mL) inhibited AI-2 synthesis in E. coli 12.5- and 3.5-fold. […] 96: p. 1639-1644).

E. coli = E. coli cell growth (toxicity); format: cell-based; conditions: 60 μg/mL
AI-2 synthesis [2] = conditions: 100 μg/mL; cited from earlier work

CC1=CC(=C(Br)Br)OC1=O [furanone #9]
repression of E. coli biofilm formation, % of the surface coverage (E. coli biofilm): 86% | inhibition of AI-2 synthesis in E. coli (AI-2 synthesis [1]): 3.5 fold | E. coli cell growth (E. coli): cell growth not affected

O=C1O/C(=C/Br)C(Br)=C1CBr [furanone #10]
repression of E. coli biofilm formation, % of the surface coverage (E. coli biofilm): 91% | E. coli cell growth (E. coli): cell growth not affected

CCCCC1=C(Br)/C(=C\Br)OC1=O [furanone #1]
inhibition of AI-2 synthesis (AI-2 synthesis [2]): 2 fold
